Results as given in patent US10640512B2, “Imidazopyrazinamine phenyl derivative and use thereof” (HANGZHOU SANYINTAI PHARMACEUTICAL TECHNOLOGY CO., LTD., priority 2016, dated 2020).
pIC50: −log10 of the molar value. Where two headings read alike, the source gives them in different places.

Legend:
[1] = target: HCK (Homo sapiens, UniProt P08631); experiment: Caliper Mobility Shift Assay, kinase inhibition; type: biochemical
Source text: (§1) The test method used was the Caliper Mobility Shift Assay, the kinases to be tested are BTK, ITK, TEC, EGFR, HER2, HER4, JAK3, HCK, LYN, SRC and SYK. The standard reference compound used was staurosporine.

[2] = target: LYN (Homo sapiens, UniProt P07948); experiment: Caliper Mobility Shift Assay, kinase inhibition; type: biochemical
LYN, sequence (P07948 whole entry): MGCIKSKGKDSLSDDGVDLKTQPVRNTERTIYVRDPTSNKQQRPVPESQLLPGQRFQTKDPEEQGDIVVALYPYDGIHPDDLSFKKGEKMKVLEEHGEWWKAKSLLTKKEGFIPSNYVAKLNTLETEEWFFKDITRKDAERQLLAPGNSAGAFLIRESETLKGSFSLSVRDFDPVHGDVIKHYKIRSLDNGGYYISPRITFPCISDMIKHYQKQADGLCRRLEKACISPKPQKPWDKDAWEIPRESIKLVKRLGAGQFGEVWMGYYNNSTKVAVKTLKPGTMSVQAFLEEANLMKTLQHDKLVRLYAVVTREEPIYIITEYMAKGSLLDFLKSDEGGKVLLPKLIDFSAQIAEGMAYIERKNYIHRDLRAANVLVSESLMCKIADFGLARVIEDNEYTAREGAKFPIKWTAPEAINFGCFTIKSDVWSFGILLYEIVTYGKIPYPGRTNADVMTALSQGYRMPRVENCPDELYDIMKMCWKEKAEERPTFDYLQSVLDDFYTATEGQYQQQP
Source text: as §1

[3] = target: SRC (Homo sapiens, UniProt P12931); experiment: Caliper Mobility Shift Assay, kinase inhibition; type: biochemical
SRC, sequence (P12931 whole entry): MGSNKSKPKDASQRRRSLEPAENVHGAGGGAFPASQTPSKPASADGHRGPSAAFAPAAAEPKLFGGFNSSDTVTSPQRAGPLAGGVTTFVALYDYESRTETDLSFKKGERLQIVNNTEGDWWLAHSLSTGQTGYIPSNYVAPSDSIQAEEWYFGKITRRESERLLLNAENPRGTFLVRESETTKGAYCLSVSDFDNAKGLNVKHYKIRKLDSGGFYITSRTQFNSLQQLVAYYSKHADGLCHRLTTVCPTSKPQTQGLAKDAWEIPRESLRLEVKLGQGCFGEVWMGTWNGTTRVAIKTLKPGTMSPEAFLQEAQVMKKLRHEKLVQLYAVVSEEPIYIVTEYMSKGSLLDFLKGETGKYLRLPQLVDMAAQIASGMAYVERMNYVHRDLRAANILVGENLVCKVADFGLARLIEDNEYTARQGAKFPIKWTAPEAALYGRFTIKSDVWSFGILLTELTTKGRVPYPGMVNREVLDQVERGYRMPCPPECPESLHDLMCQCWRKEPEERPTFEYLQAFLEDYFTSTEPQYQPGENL
Source text: as §1

[4] = target: SYK (Homo sapiens, UniProt P43405); experiment: Caliper Mobility Shift Assay, kinase inhibition; type: biochemical
Source text: as §1

[5] = In vitro liver microsomal metabolism (mouse); type: in vitro ADME; settings: for half-life / CLint scaled: mouse liver microsomes; for half-life: NADPH, 37° C., read-out: T1/2 in liver microsomes; for CLint scaled: calculated from elimination half life, read-out: intrinsic clearance (CLint)
Description: (§2) In addition, in vitro liver microsomal metabolism of the compounds of the present invention was also tested. The test compound was co-incubated with NADPH and mouse or human liver microsomes in a 37° C. water bath pot, a reaction was initiated by adding the test compound. […] was taken at different time points (0, 10, 20, 40 and 60 minutes) and transferred to acetonitrile containing an internal standard. After proteins were precipitated, the supernatant was obtained by centrifugation. The test compound in the supernatant was analyzed by the LC-MS/MS method. The intrinsic clearance in vitro was calculated according to the elimination half life of the test compound in the incubation system. Midazolam was subjected to parallel incubation as a positive control. […] Tests of the other compounds of the present invention also had similar results.

[6] = In vitro liver microsomal metabolism (human); type: in vitro ADME; settings: human liver microsomes; for half-life: NADPH, 37° C., read-out: T1/2 in liver microsomes; for CLint scaled: calculated from elimination half life, read-out: intrinsic clearance (CLint)
Description: as §2

[7] = disclosed in a conference paper (2nd International Conference on New Concepts in B-cell Malignancies, 2016); cited from earlier work
[8] = target: BTK (Homo sapiens, UniProt Q06187); experiment: Caliper Mobility Shift Assay, kinase inhibition; type: biochemical; settings: for pIC50: BTK enzyme activity; for inhibiting effects on BTK kinase (in words): summary of Table 1
BTK, sequence (Q06187 whole entry): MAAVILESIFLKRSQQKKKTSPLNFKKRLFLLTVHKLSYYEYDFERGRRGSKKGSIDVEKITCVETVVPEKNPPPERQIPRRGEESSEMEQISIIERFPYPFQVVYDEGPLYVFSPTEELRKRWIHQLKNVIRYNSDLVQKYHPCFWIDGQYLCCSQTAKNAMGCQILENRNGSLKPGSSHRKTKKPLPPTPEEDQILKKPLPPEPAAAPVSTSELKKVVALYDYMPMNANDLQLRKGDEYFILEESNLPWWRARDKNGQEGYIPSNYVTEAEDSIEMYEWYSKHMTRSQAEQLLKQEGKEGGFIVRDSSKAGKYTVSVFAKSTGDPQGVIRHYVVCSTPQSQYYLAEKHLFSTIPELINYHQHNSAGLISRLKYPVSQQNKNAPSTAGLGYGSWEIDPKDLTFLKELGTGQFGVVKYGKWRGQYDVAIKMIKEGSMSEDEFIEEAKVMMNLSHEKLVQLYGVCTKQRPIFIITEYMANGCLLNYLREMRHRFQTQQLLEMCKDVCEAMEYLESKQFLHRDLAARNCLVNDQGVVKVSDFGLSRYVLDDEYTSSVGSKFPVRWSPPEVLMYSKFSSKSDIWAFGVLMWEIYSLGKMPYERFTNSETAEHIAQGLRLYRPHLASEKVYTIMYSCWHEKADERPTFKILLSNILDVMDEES
Source text: as §1

[9] = target: EGFR (Homo sapiens, UniProt P00533); experiment: Caliper Mobility Shift Assay, kinase inhibition; type: biochemical
Source text: as §1

[10] = target: HER2 (Homo sapiens, UniProt P04626); experiment: Caliper Mobility Shift Assay, kinase inhibition; type: biochemical
HER2, sequence (P04626 23-1255): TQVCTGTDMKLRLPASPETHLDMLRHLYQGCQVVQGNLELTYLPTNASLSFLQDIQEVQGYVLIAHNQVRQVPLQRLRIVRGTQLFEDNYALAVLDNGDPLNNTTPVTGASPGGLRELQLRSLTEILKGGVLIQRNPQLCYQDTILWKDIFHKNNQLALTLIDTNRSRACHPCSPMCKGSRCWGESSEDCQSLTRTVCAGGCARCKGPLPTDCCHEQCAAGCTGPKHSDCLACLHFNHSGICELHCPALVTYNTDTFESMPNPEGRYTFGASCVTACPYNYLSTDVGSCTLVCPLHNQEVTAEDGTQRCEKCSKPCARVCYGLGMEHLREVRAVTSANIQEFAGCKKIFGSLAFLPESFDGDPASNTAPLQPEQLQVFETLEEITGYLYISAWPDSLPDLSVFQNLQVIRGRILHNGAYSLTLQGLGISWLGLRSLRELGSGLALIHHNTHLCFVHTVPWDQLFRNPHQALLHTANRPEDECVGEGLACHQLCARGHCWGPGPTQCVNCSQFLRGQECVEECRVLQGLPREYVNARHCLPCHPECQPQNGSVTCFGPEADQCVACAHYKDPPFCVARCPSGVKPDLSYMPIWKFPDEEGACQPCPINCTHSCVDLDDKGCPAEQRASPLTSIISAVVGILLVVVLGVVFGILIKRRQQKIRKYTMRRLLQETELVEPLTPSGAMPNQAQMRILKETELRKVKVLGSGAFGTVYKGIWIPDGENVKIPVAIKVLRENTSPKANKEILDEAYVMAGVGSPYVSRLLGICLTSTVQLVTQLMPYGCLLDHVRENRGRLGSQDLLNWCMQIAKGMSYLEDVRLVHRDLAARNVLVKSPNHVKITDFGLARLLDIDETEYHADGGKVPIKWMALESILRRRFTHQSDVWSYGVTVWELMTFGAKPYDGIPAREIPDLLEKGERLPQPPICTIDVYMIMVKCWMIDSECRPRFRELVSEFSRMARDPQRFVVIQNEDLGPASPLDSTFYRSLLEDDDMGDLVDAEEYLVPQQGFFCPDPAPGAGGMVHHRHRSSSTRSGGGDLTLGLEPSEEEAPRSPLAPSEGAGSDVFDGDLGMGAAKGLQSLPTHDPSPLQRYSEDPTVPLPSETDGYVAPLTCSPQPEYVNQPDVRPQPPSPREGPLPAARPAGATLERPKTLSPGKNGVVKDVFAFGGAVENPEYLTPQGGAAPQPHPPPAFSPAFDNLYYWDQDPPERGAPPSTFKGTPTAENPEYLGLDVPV
Source text: as §1

[11] = target: HER4 (Homo sapiens, UniProt Q15303); experiment: Caliper Mobility Shift Assay, kinase inhibition; type: biochemical
HER4, sequence (Q15303 26-1308): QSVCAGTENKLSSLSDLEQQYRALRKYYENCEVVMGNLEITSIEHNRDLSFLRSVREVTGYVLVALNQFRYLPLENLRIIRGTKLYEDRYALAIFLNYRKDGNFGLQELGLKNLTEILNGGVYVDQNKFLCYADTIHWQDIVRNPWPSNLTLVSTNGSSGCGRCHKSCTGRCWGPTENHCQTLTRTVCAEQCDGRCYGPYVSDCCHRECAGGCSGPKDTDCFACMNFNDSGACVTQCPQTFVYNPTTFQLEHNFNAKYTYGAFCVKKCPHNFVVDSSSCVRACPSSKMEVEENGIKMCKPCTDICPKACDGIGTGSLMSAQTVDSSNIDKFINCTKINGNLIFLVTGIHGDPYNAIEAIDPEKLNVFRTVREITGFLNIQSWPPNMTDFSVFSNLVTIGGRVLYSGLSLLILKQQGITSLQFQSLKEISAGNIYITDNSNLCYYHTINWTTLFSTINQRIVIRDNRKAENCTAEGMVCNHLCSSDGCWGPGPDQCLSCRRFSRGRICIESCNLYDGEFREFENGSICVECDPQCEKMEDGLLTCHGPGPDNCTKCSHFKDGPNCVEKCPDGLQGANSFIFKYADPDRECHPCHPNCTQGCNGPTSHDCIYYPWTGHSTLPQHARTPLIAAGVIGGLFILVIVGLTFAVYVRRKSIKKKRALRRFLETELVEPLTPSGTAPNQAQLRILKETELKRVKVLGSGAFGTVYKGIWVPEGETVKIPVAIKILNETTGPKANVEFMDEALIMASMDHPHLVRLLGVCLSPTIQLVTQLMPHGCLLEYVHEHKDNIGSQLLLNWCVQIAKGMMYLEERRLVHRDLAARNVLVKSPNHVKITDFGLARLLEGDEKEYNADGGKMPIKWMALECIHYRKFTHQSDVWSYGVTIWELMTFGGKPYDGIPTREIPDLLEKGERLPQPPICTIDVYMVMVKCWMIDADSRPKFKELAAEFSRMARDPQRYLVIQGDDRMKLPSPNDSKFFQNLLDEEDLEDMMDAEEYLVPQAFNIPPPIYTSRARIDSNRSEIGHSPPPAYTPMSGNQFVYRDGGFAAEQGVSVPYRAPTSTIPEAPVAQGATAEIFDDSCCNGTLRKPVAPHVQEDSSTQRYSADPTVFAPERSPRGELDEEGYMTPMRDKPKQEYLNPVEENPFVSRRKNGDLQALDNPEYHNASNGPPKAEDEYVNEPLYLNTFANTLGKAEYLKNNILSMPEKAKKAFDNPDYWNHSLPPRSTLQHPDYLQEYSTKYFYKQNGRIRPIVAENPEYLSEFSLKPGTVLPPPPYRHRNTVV
Source text: as §1

[12] = target: T1, ITK (Homo sapiens, UniProt Q08881); experiment: Caliper Mobility Shift Assay, kinase inhibition; type: biochemical
T1 sequence (Q08881 1-620): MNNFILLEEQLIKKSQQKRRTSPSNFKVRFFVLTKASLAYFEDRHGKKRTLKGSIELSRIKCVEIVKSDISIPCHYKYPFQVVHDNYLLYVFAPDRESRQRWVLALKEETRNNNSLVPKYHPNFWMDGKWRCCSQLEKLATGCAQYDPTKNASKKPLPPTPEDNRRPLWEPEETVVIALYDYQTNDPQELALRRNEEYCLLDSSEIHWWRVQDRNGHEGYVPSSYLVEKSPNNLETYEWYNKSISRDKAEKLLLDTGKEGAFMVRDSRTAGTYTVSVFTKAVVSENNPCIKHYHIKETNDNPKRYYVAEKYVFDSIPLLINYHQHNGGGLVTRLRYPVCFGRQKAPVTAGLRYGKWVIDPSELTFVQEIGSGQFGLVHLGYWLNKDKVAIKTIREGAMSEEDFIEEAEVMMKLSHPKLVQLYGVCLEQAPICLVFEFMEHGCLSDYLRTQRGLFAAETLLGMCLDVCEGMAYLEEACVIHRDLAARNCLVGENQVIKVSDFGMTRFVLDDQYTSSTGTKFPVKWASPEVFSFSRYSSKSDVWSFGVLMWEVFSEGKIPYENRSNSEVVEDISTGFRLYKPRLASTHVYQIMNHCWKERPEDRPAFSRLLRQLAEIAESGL
Source text: as §1

[13] = target: T2, JAK3 (Homo sapiens, UniProt P52333); experiment: Caliper Mobility Shift Assay, kinase inhibition; type: biochemical
T2 sequence (P52333 1-1124): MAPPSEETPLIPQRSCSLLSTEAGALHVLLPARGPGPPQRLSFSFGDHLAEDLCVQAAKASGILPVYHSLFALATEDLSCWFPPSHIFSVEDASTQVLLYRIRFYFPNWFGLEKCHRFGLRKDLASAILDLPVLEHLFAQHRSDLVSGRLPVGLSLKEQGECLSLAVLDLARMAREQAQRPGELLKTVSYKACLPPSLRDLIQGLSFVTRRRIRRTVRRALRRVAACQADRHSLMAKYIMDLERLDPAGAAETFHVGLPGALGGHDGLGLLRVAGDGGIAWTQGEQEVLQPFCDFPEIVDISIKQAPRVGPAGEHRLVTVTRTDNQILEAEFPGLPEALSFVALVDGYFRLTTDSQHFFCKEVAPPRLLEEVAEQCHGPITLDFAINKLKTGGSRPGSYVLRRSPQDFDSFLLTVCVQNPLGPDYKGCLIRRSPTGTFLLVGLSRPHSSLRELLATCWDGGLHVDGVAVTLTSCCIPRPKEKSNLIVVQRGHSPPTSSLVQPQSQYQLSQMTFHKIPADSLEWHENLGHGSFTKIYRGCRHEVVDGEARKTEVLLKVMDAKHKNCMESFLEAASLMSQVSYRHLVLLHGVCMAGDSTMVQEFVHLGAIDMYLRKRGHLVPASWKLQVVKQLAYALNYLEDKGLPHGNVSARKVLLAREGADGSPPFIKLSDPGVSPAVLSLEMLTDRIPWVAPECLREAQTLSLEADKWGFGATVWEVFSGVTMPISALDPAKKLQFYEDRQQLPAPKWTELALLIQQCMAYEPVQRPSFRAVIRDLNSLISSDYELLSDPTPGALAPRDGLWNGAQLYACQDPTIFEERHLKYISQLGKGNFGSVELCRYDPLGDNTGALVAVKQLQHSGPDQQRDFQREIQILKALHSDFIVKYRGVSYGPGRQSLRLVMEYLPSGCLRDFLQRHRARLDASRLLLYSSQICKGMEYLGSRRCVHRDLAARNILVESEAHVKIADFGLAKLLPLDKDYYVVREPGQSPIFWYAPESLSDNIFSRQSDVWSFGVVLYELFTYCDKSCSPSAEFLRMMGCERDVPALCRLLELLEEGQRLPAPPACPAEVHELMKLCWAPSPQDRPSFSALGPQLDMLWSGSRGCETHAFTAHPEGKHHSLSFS
Source text: as §1

[14] = target: T3, TEC (Homo sapiens, UniProt P42680); experiment: Caliper Mobility Shift Assay, kinase inhibition; type: biochemical
T3 sequence (P42680 1-631): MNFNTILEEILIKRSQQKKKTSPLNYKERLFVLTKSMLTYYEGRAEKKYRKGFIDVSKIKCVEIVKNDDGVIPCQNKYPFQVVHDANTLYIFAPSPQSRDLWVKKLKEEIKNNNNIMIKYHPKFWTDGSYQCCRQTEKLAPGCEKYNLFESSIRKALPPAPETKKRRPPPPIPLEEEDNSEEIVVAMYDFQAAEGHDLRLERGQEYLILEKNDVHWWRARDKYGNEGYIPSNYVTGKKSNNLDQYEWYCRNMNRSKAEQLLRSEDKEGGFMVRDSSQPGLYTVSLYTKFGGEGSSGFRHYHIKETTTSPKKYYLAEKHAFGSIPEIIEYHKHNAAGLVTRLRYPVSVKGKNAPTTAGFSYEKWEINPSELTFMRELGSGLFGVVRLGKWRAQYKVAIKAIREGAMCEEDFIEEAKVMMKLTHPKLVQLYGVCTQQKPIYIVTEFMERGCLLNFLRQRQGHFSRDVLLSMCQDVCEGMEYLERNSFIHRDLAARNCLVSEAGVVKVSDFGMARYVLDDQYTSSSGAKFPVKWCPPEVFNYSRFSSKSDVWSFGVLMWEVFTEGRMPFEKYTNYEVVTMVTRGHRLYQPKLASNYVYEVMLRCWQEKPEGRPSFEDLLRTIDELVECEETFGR
Source text: as §1

[15] = Pharmacokinetic properties in CD-1 mouse; type: in vivo; settings: both sexes, plasma; for AUC(0-t): read-out: AUClast (area under the curve); for half-life: read-out: Terminal t1/2 (half life) (converted)
Description: Experiment animals: CD-1 mouse, males and females; body weight: 20-25 g;
Route of administration: oral/intravenous. […]
Sample collection: blood samples were collected at the following time points: 5 minutes, 15 minutes, 30 minutes, 1 hours, 2 hours, 4 hours, 8 hours and 24 hours after administration.
Sample analysis: The collected samples were tested using the LC-MS/MS method. The model of the instrument used was API4000.
Pharmacokinetic data analysis: the obtained plasma concentration data were fitted and calculated according to the non-compartmental model method using WinNolin.
In Table 3, CL: clearance. VSS: apparent volume of distribution at steady state. Terminal t1/2: half life. AUClast: area under the curve. MRTINF: average residence time. Tmax: peak time. Cmax: peak concentration. F: bioavailability, refers to the fraction of oral dosage actually reaching the blood circulation.

[16] = test system: ITK, TEC, EGFR, HER2, HER4, JAK3, HCK, LYN, SRC and SYK; experiment: Kinase selectivity panel, Caliper Mobility Shift Assay; type: biochemical; settings: summary of Table 2
Description: The semi-inhibitory concentration IC50 of the compound (the concentration of the compound required to inhibit the enzyme activity to 50%) is determined by mixing a fixed enzyme with a specific substrate and different concentrations of the test compounds. The test method used was the Caliper Mobility Shift Assay, the kinases to be tested are BTK, ITK, TEC, EGFR, HER2, HER4, JAK3, HCK, LYN, SRC and SYK. The standard reference compound used was staurosporine.
The results of experiments on the inhibitions of ITK, TEC, EGFR, HER2, HER4, JAK3, HCK, LYN, SRC and SYK enzyme activities by the target compound Id were summarized in Table 2. […] This selective inhibiting effect has important values for the treatment of diseases such as rheumatoid arthritis, B cell lymphoma, leukemia, multiple myeloma, allergies, asthma, multiple sclerosis, type I diabetes and systemic lupus erythematosus. The tests of other compounds of the present invention also have similar results.

[17] = 3 mg/kg, intravenous injection, single administration
[18] = 15 mg/kg, oral, single administration

HCK, sequence (P08631 whole entry): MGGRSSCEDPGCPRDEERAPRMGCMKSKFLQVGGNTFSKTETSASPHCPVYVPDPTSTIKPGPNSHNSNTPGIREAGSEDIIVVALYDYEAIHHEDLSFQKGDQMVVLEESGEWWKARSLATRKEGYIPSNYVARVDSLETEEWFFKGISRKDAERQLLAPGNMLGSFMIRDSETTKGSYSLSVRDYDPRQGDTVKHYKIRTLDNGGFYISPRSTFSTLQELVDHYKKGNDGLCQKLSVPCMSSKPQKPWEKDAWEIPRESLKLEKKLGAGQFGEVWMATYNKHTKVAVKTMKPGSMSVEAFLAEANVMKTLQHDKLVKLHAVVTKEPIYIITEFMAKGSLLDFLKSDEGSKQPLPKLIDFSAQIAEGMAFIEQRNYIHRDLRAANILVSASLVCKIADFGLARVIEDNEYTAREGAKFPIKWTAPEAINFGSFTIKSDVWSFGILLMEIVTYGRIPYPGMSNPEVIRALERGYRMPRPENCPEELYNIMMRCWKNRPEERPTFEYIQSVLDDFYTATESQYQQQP

Structure (SMILES)	pIC50 [1]	pIC50 [2]	pIC50 [3]	pIC50 [4]	half-life [5]	CLint scaled [5]	half-life [6]	CLint scaled [6]	pIC50 [8]	inhibiting effects on BTK kinase (in words) [8]	also measured
CC#CC(=O)N1CCC[C@H]1c1nc(-c2ccc(C(=O)Nc3ccccn3)cc2)c2c(N)nccn12 [Acalabrutinib, acalabrutinib, reference compound]	< 6.00	< 6.00	< 6.00	< 6.00	23.3 min	234 mL/min/kg	11.9 min	146 mL/min/kg	–	–	half life [7]: 67.8 min
CC#CC(=O)N1CCC[C@H]1c1nc(-c2ccc(NC(=O)c3ccccn3)cc2)c2c(N)nccn12 [Compound of formula Ia]	–	–	–	–	–	–	–	–	6.38	strong inhibiting effects	–
CC#CC(=O)N1CCC[C@H]1c1nc(-c2ccc(Oc3ccccn3)cc2)c2c(N)nccn12 [Compound of formula Ic]	–	–	–	–	–	–	–	–	6.24	strong inhibiting effects	–

Further molecules by rising pIC50 [8], results first:

pIC50 [1]	pIC50 [2]	pIC50 [3]	pIC50 [4]	half-life [5]	CLint scaled [5]	half-life [6]	CLint scaled [6]	pIC50 [8]	inhibiting effects on BTK kinase (in words) [8]	Structure (SMILES)	also measured
–	–	–	–	–	–	–	–	7.30	very strong inhibiting effects	CC#CC(=O)N1CCC[C@H]1c1nc(-c2ccc(C(=O)Nc3ccccn3)c(C)c2)c2c(N)nccn12 [Compound of formula Ib]	–
< 6.00	< 6.00	< 6.00	< 6.00	8.26 min	661 mL/min/kg	3.13 min	555 mL/min/kg	8.32	very strong inhibiting effects	CC#CC(=O)N1CCC[C@H]1c1nc(-c2ccc(Oc3ccccc3)cc2)c2c(N)nccn12 [Compound of formula Id]	pIC50 [9]: < 6.00; pIC50 [10]: < 6.00; pIC50 [11]: < 6.00; pIC50 [12]: < 6.00; pIC50 [13]: < 6.00; pIC50 [14]: 7.40; AUC(0-t) [15, 17]: 661 ng·h/mL; clearance ([15]; 3 mg/kg, intravenous injection, single administration, read-out: CL (clearance) (converted)): 77 mL/min/kg; MRT inf ([15]; 3 mg/kg, intravenous injection, single administration, read-out: MRTINF (average residence time)): 17.8 min; half-life [15, 17]: 17.2 min; Vd ([15]; 3 mg/kg, intravenous injection, single administration, read-out: Vss (apparent volume of distribution at steady state)): 1.3 L/kg; bioavailability ([15]; 15 mg/kg oral vs 3 mg/kg intravenous, read-out: F (bioavailability)): 56.4%; AUC(0-t) [15, 18]: 1880 ng·h/mL; Cmax ([15]; 15 mg/kg, oral, single administration, read-out: Cmax (peak concentration)): 848 ng/mL; half-life [15, 18]: 98.4 min; Tmax ([15]; 15 mg/kg, oral, single administration, read-out: Tmax (peak time)): 15 min; metabolism rate relative to acalabrutinib (in words) ([5]; mouse or human liver microsomes): metabolized faster than acalabrutinib; selective inhibiting activity (in words) [16]: good
